The text below walks through data of patent publication US10538521B2, “Pyrimidine derivative having antimalarial activity” (CARNA BIOSCIENCES, INC., priority 2016, dated 2020).

Like-named read-outs stand apart in the source and are kept apart here. Bounds are passed on as bounds.

For test [1], the system named is K1 strain, a drug resistant strain of Plasmodium falciparum. Put plainly: In vitro antimalarial assay (p-LDH, Malstat), K1 strain. The test is classed as cell-based. The note with it: P. falciparum K1 (drug resistant), 72 h culture, p-LDH readout, read-out: Antimalarial activity (IC50 value), Strain K1. The gist of the method:
(§1)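 IC50 derived from concentration-response of parasite lactate dehydrogenase signal (Malstat reagent, NBT/PES formazan at 655 nm) after freeze-thaw lysis. Infected erythrocytes (hematocrit 2%, parasitaemia 0.5 or 1%) exposed 72 h to 12.5–0.0001 μM final compound under 3% O2-4% CO2-93% N2, FCR3 and K1 alike.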

Test [2] relates to FCR3 strain, a drug sensitive strain of Plasmodium falciparum. Put plainly: In vitro antimalarial assay (p-LDH, Malstat), FCR3 strain. The test is classed as cell-based. The note with it: P. falciparum FCR3 (drug sensitive), 72 h culture, p-LDH readout, read-out: Antimalarial activity (IC50 value), Strain FCR3. The gist of the method:
as §1

Test [3] concerns P. berghei N strain (drug sensitive strain). Put plainly: In vivo antimalarial assay, mouse model infected with rodent malaria. The note with it: Plasmodium berghei, ip, 96 h, parasitaemia on day 4, ICR mice, read-out: Therapeutical Effect (%) inhibition; for inhibition in vivo at 3 mg/kg: 3 mg/kg i.p.; for inhibition in vivo at 10 mg/kg: 10 mg/kg i.p. The method, then: In vivo antimalarial activity of the compound of the present invention was determined using a mouse model infected with rodent malaria P. berghei N strain (drug sensitive strain) by slightly modifying the method described in the above publication of Otoguro et al. (2001) and the method reported by Peters et al. (Peters, W., Portus, J. H. and Robinson, B. L.: The chemotherapy of rodent malaria. XXII. The value of drug-resistant strains of P. berghei in Screening for blood schizonticidal activity. Ann. Trop. Med. Parasitol., 69: 155-171, (1975)). The P. berghei N strain was generous gift from Dr. W. Peters (Northwick Park Institute for Medical Research, Middlesex, United Kingdom).
A group of three ICR male mice (Charles River Laboratories Japan, Inc.) weighing 18 to 20 g was used as a test animal. Using protozoa maintained and sub-cultured by in vivo passage, 2×10^6 parasite-infected erythrocytes were pre pared, and the mice were infected therewith by tail vein injection. For the therapeutic test, a 1-day suppressive test was performed. The day of infection was defined as day 0. Two hours after the infection, a solution of the test compound (solvent: 3% DMSO/0.5% methylcellulose400-solution or suspension) was administered intraperitoneally (i.p.) once to 3 times. On day 4, blood smear preparation was prepared by collecting from the tail vein and the ratio of parasite-infected erythrocytes (parasitaemia) was investigated to determine the therapeutic effect (inhibition percentage) based on the infection rate of the group to which the compound was not administered. The significance test was performed by Dunnett's test.

Where [4] appears, read: administered twice (day 0 and 1).

Consider `COc1ccnc(Nc2nc(Nc3ccn4ccnc4c3)cc(N3CCCCC3)n2)c1` [Example 93, N4-(imidazo[1,2-a]pyridin-7-yl)-N2-(4-methoxypyridin-2-yl)-6-(piperidin-1-yl)pyrimidine-2,4-diamine], for which the IC50 in test [1] and in test [2] was under 100 nM each time. Moreover, in test [3] (setting [4]), the inhibition in vivo at 3 mg/kg was determined as 64.2%.
On to `CC(C)Cc1cccc(Nc2nc(Nc3ccn4ccnc4c3)cc(N3CCCC3)n2)n1` [Example 161, N4-(imidazo[1,2-a]pyridin-7-yl)-N2-(6-isobutylpyridin-2-yl)-6-(pyrrolidin-1-yl)pyrimidine-2,4-diamine], for which the IC50 in test [1] and in test [2] was under 100 nM in each case. The inhibition in vivo at 10 mg/kg in test [3] (setting [4]) worked out at 64.3%.
In the case of `CCc1ccnc(Nc2nc(Nc3ccn4ccnc4c3)cc(N3CCCC3)n2)c1` [Example 94, N2-(4-ethylpyridin-2-yl)-N4-(imidazo[1,2-a]pyridin-7-yl)-6-(pyrrolidin-1-yl)pyrimidine-2,4-diamine], the IC50 in test [1] and in test [2] was under 100 nM each time. Further, in test [3] (administered once), the inhibition in vivo at 3 mg/kg is 42.9%.
Consider `CCCc1cccc(Nc2nc(Nc3ccn4ccnc4c3)cc(N3CCCCC3)n2)n1` [Example 105, N4-(imidazo[1,2-a]pyridin-7-yl)-6-(piperidin-1-yl)-N2-(6-propylpyridin-2-yl)pyrimidine-2,4-diamine], for which the IC50 in test [1] and in test [2] was under 100 nM throughout. In addition, the inhibition in vivo at 10 mg/kg in test [3] (administered once) was 41.9%.
As to `Cc1cc(C)nc(Nc2nc(Nc3ccn4ccnc4c3)cc(N3CCC(C)(C)C3)n2)c1` [Example 142, N2-(4,6-dimethylpyridin-2-yl)-6-(3,3-dimethylpyrrolidin-1-yl)-N4-(imidazo[1,2-a]pyridin-7-yl)pyrimidine-2,4-diamine], the IC50 in test [1] and in test [2] was under 100 nM each time. Besides, the inhibition in vivo at 10 mg/kg in test [3] (administered three times (day 0, 1 and 2)) is 84.5%.
